Source: US20090239926A1, “METHODS FOR THE TREATMENT OF PSORIASIS OR PSORIATIC ARTHRITIS USING CYCLOPROPYL-N-CARBOXAMIDE” (priority 2008, published 2009)

Tested on: mAB/LPS-induced experimental arthritis in male BALB/c mice
Experiment: mAb/LPS-induced mice arthritis model
Type: in vivo
Conditions: Enbrel 5 mg/kg/day IP
Description: Treatment Regimen: Compound A was administered by oral gavage (PO), using a suitable stainless steel feeding needle. Enbrel (Reference Item) was administrated by intraperitoneal (IP) injections. Compound A was first administered on study Day 3 (one hour prior to the single LPS injection) and thereafter on Days 4, 5, 6, 7, 8, 9, 10, 11, 12 and 13 (total of 11 successive treatment days) at 1, 5 and 25 mg/kg once daily. Compound A treated groups comprised n=8 BALB/c male mice per dosing group. In addition, two equally sized groups were treated with either Enbrel (5 mg/kg/day, Reference Item), or a solution of 0.5% Na CMC/0.25% Tween 80 (PO, 5 ml/kg, Vehicle Control).
Arthritis Reactions: Both hind paws (left and right) of each animal were examined for signs of arthritogenic responses prior to arthritis induction (Day 0) and thereafter on study days 4, 5, 6, 7, 9, 11 & 14 as selected by the Sponsor. Arthritis reactions were scored and recorded according to a 0-4 scale in ascending order of severity (based on Morwell MD Biosciences Inc. brochure) as shown in Table 1.
Measurements of Experimental Arthritis: Hind paw thickness was determined on eight days using a Mitutoyo Electronic Digital Caliper (on Days 0, 4, 5, 6, 7, 9, 11 and 14) and presented as mean group values of the average for both left and right hind paws.

[1] = Day 0 (prior to arthritis induction)

Enbrel
Arthritis Scoring, mean of both hind paws (0-4 scale) [1]: 0 | Hind Paws Thickness, group mean [1]: 2.2 mm | Arthritis Scoring, mean of both hind paws (0-4 scale) (Day 4): 0 | Hind Paws Thickness, group mean (Day 4): 2.2 mm | Percentage Change in Hind Paw Thickness vs. Study Commencement (Day 0), group mean (Day 4): 0% | Arthritis Scoring, mean of both hind paws (0-4 scale) (Day 5): 1 | Hind Paws Thickness, group mean (Day 5): 2.3 mm | Percentage Change in Hind Paw Thickness vs. Study Commencement (Day 0), group mean (Day 5): 6% | Arthritis Scoring, mean of both hind paws (0-4 scale) (Day 6): 1 | Hind Paws Thickness, group mean (Day 6): 2.5*↓ mm | Percentage Change in Hind Paw Thickness vs. Study Commencement (Day 0), group mean (Day 6): 13% | Arthritis Scoring, mean of both hind paws (0-4 scale) (Day 7): 1**↓ | Hind Paws Thickness, group mean (Day 7): 2.5**↓ mm | Percentage Change in Hind Paw Thickness vs. Study Commencement (Day 0), group mean (Day 7): 12**↓ % | Arthritis Scoring, mean of both hind paws (0-4 scale) (Day 9): 1***↓ | Hind Paws Thickness, group mean (Day 9): 2.3**↓ mm | Percentage Change in Hind Paw Thickness vs. Study Commencement (Day 0), group mean (Day 9): 7**↓ % | Arthritis Scoring, mean of both hind paws (0-4 scale) (Day 11): 0***↓ | Hind Paws Thickness, group mean (Day 11): 2.3**↓ mm | Percentage Change in Hind Paw Thickness vs. Study Commencement (Day 0), group mean (Day 11): 4**↓ % | Arthritis Scoring, mean of both hind paws (0-4 scale) (Day 14): 0**↓ | Hind Paws Thickness, group mean (Day 14): 2.3**↓ mm | Percentage Change in Hind Paw Thickness vs. Study Commencement (Day 0), group mean (Day 14): 4**↓ %
